The values below come from US20230416275A1, “MODULATORS OF CYSTIC FIBROSIS TRANSMEMBRANE CONDUCTANCE REGULATOR” (VERTEX PHARMACEUTICALS INCORPORATED, priority 2020, published 2023).

A value given as a limit tells only on which side of the number the result lay.

For test [1], the target named is CFTR-mediated chloride transport in human intestinal epithelial enteroid cells (Homo sapiens, UniProt P13569). Description: Membrane potential dye, Enteroid Assay A. It counts as cell-based. The settings on record: for Ent. A Max Activity (%): % of chloride transport of triple combination control (3 μM N-[(6-amino-2-pyridyl)sulfonyl]-6-(3-fluoro-5-isobutoxy-phenyl)-2-[(4S)-2,2,4-trimethylpyrrolidin-1-yl]pyridine-3-carboxamide, 3 μM tezacaftor, 300 nM acute ivacaftor); for EC50: enteroid cells, 18-24 hours incubation, acute 10 μM forskolin and 300 nM ivacaftor, read-out: Ent. A EC50. The procedure, abridged:
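Enteroids seeded at 5000 cells/well were exposed to test compound in IEMM for 18-24 h at 37 °C, then loaded with methyl oxonol membrane potential dye. Chloride transport was triggered in chloride-free buffer with 10 μM forskolin, 100 μM IBMX and 300 nM Compound III, read by fluorescence for 15 min and expressed as % of a triple-combination control.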

The next test addresses T1, F508del in NIH 3T3 cells (Homo sapiens, UniProt P13569, DEL508-508).
T1 construct: expressed in transfected cells
Description: 3T3 assay: membrane potential optical assay for F508del correction. The test is classed as cell-based, mouse. The settings on record: for EC50 / 3T3 Max Activity (%): F508del NIH 3T3 cells; for EC50: compound incubation 18-24 hours at 37° C., forskolin activation, read-out: 3T3 EC50; for Emax: NIH3T3, F508del NIH 3T3 cells, read-out: 3T3 Max Activity (%); for Emax / 3T3 Max Activity (%): efficacy compared to lumacaftor in combination with acutely added 300 nM Ivacaftor. The procedure, abridged:
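NIH3T3 mouse fibroblasts stably expressing F508del incubated with corrector compounds at a range of concentrations for 16-24 h at 37 °C, then loaded with voltage-sensing redistribution dye. Single addition of forskolin with Cl− gradient (chloride-free gluconate bath vs. NaCl bath, pH 7.4); membrane potential change read by fluorescence on FLIPR.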

CFTR-mediated chloride transport in human intestinal epithelial enteroid cells, sequence (P13569 with tags, fused parts or gaps DEL508-508): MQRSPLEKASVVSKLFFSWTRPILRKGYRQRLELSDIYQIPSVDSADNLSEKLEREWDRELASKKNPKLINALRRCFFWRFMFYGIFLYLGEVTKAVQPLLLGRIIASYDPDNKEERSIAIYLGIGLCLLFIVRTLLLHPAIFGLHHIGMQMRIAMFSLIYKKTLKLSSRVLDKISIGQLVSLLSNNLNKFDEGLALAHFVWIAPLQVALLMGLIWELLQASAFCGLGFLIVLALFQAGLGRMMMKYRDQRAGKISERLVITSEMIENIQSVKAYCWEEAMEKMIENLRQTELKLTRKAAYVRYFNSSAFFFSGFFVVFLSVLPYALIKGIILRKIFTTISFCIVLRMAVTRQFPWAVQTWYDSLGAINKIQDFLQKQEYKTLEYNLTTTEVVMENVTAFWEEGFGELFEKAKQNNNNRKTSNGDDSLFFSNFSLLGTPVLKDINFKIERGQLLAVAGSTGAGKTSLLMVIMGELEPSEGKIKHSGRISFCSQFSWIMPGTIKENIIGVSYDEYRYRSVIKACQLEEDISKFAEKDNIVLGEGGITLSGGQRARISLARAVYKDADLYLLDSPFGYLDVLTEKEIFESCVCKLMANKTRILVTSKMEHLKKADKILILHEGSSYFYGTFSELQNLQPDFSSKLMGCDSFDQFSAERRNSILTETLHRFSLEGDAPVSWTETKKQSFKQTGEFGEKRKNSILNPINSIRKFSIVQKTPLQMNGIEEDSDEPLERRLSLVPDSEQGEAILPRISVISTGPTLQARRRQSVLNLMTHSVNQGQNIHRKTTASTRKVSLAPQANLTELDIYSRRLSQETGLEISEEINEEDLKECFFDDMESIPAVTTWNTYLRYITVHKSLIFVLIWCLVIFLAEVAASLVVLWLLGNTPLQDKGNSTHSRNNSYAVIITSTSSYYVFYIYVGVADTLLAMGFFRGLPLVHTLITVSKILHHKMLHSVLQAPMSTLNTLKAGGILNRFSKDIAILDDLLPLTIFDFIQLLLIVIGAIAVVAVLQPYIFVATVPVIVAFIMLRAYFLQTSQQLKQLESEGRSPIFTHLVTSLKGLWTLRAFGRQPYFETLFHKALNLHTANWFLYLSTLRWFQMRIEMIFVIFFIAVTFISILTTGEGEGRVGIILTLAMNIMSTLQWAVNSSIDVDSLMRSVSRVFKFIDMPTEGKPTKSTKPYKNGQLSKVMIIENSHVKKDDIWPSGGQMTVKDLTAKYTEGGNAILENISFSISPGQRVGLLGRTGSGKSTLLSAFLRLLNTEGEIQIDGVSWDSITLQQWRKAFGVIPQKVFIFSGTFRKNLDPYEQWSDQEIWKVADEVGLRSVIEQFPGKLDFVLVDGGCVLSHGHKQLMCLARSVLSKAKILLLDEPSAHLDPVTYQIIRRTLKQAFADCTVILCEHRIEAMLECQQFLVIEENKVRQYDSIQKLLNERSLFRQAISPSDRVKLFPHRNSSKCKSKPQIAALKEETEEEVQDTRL
T1 sequence (P13569 with tags, fused parts or gaps DEL508-508): as above

As to `Cc1cccc(C)c1-c1cc2nc(n1)NS(=O)(=O)c1cccc(c1)NC(=O)[C@@H]1C[C@@H](CN(CC3CC3)C1)O2` [Compound 30], in test [1], the “Ent. A Max Activity (%)” value is “++ (++ is 30-60%)” and the EC50 lay in the range of 1 to 3 µM. Besides, at F508del in NIH 3T3 cells, the EC50 was < 1 µM and the Emax was > 60%.

Regarding `Cc1cccc(C)c1-c1cc2nc(n1)NS(=O)(=O)c1cccc(c1)NC(=O)[C@@H]1C[C@@H](CN(C(=O)OCCF)C1)O2` [Compound 33], in test [1], the “Ent. A Max Activity (%)” value is “++ (++ is 30-60%)” and the EC50 lay in the range of 1 to 3 µM. Moreover, at F508del in NIH 3T3 cells, the EC50 is < 1 µM and the Emax was > 60%.

Turning to `Cc1cccc(C)c1-c1cc2nc(n1)NS(=O)(=O)c1cccc(c1)NC(=O)[C@H]1C[C@@H](CN(C(=O)NC(C)(C)C)C1)O2` [Compound 42], the “Ent. A Max Activity (%)” value in test [1] is on record as “+ (+ is <30%)”. Moreover, on F508del in NIH 3T3 cells, the EC50 lay in the range of 3 to 30 µM and the Emax was > 60%.

With `Cc1cccc(C)c1-c1cc2nc(n1)NS(=O)(=O)c1cccc(c1)NC(=O)[C@H]1C[C@H](CN(C(=O)NC(C)(C)C)C1)O2` [Compound 43], the “Ent. A Max Activity (%)” value in test [1] is “+ (+ is <30%)”. For the same compound, at F508del in NIH 3T3 cells, the EC50 lay within 3 to 30 µM and the Emax is > 60%.

Take `Cc1cccc(C)c1-c1cc2nc(n1)NS(=O)(=O)c1cccc(c1)NC(=O)[C@@H]1C[C@@H](CN(C(=O)NC(C)(C)C)C1)O2` [Compound 44]: in test [1], the “Ent. A Max Activity (%)” value is “+++ (+++ is >60%)” and the EC50 lay within 3 to 30 µM. In addition, on F508del in NIH 3T3 cells, the EC50 was < 1 µM and the Emax is > 60%.

With `Cc1cccc(C)c1-c1cc2nc(n1)NS(=O)(=O)c1cccc(c1)NC(=O)[C@@H]1C[C@@H](CN(C(=O)CC(C)(C)C)C1)O2` [Compound 45], in test [1], the “Ent. A Max Activity (%)” value is “+++ (+++ is >60%)” and the EC50 fell in the range of 1 to 3 µM. Moreover, on F508del in NIH 3T3 cells, the concentration giving a half-maximal response (EC50) was < 1 µM and the Emax is > 60%.

For `Cc1cccc(C)c1-c1cc2nc(n1)NS(=O)(=O)c1cccc(c1)NC(=O)[C@@H]1C[C@@H](CN(C(=O)C(C)(C)C)C1)O2` [Compound 46], in test [1], the “Ent. A Max Activity (%)” value was “+++ (+++ is >60%)” and the EC50 lay within 1 to 3 µM. Further, at F508del in NIH 3T3 cells, the EC50 is < 1 µM and the Emax was > 60%.

Consider `Cc1cccc(C)c1-c1cc2nc(n1)NS(=O)(=O)c1cccc(c1)NC(=O)[C@H]1CNC[C@@H](C1)O2` [Compound 47], for which the “Ent. A Max Activity (%)” value in test [1] is “+ (+ is <30%)”. Further, the Emax on F508del in NIH 3T3 cells is 30 to 60%.

As for `Cc1cccc(C)c1-c1cc2nc(n1)NS(=O)(=O)c1cccc(c1)NC(=O)[C@@H]1CNC[C@H](C1)O2` [Compound 48], the “Ent. A Max Activity (%)” value in test [1] is “++ (++ is 30-60%)”. Besides, at F508del in NIH 3T3 cells, the EC50 is 1 to 3 µM and the Emax is > 60%.

`Cc1cccc(C)c1-c1cc2nc(n1)NS(=O)(=O)c1cccc(c1)NC(=O)[C@H]1CNC[C@H](C1)O2` [Compound 49]: the “Ent. A Max Activity (%)” value in test [1] is recorded as “+ (+ is <30%)”. At F508del in NIH 3T3 cells, the EC50 was 1 to 3 µM and the Emax is > 60%.

On to `Cc1cccc(C)c1-c1cc2nc(n1)NS(=O)(=O)c1cccc(c1)NC(=O)[C@@H]1CNC[C@@H](C1)O2` [Compound 50], for which the “Ent. A Max Activity (%)” value in test [1] was “+ (+ is <30%)”. In addition, the Emax at F508del in NIH 3T3 cells is < 30%.

On to `Cc1cccc(C)c1-c1cc2nc(n1)NS(=O)(=O)c1cccc(c1)NC(=O)C1CNCC(C1)O2` (stereo not shown) [Compound 51], for which, in test [1], the “Ent. A Max Activity (%)” value was “++ (++ is 30-60%)” and the EC50 fell in the range of 3 to 30 µM. On F508del in NIH 3T3 cells, the EC50 lay in the range of 3 to 30 µM and the “3T3 Max Activity (%)” value was “+++ (+++ is >60%)”.

With `Cc1cccc(C)c1-c1cc2nc(n1)NS(=O)(=O)c1cccc(c1)NC(=O)C1CNCC(C1)O2` (stereo not shown) [Compound 52], in test [1], the “Ent. A Max Activity (%)” value is on record as “+ (+ is <30%)” and the EC50 lay in the range of 3 to 30 µM. Besides, at F508del in NIH 3T3 cells, the “3T3 Max Activity (%)” value was “+ (+ is <30%)”.

In general, EC50 refers to the midpoint of the concentration-response curve.
